Source: patent US6517866B1 (Pfizer Inc., priority 1997, dated 2003)
Values joined by “and” are separate entries in the source; they are usually repeats but may differ in a detail not shown here. Equal entries are not always repeated. Structures can show the parent of a compound that is named as a salt.

Assays:
[1] = Example 13: screening of excipients that inhibit precipitation or gelation of sertraline lactate when chloride is present; type: physicochemical; conditions: sertraline lactate with excipient
[2] = Example 15: sertraline dissolution rate from packed powder in gastric buffer; type: physicochemical
Experimental: The sample tubes were spun at 14K G for 5 minutes in a microcentrifuge to pack the powder. 150 μl gastric buffer was added to the packed powder and the samples were gently agitated,then spun at 14K G in a microcentrifuge for 2 minutes. The samples were then removed from the microcentrifuge and allowed to stand undisturbed until the solution was removed.

[3] = Mechanical properties of compacts (compression, indentation hardness, moduli, tensile strength); type: physicochemical; conditions: for Compression Stress / Solid Fraction: Compact Preparation; for Dynamic Indentation Hard. / Reduced Elastic Modulus: Dynamic Indentation; for Tensile Strength: Tensile Fracture
Experimental: These indices are derived from critical measurements made to assess the mechanical response of the compacts (measurements are not made during the process of compaction).
The most critical material properties that influence powder compaction are its ductility, elasticity and tensile strength. Ductility is determined by pendulum impact and is a dynamic indentation test to determine the hardness of the compact. The hardness of the compound is inversely related to its ductility.
Elasticity values of greater than 8 GPa are high, values between 1-8 GPa are moderate and values less than 1 GPa are low.
Tensile strength is measured by transverse compression of the compacts until it results in tensile fracture. It is desirable to have high tensile strength. Tensile strength of greater than 2 MPa is high, values in the range of 0.8-2.0 Mpa are moderate and values less than 0.8 MPa are low.
Hiestand's ITP is comprised of the following characteristics: brittle fracture index (herein termed BFI), best case bonding index (herein termed bBI), worst case bonding index (herein termed wBI) and strain index (herein termed SI).
The BFI is a measure of the propensity of a compact to break or fragment under stress from existing cracks and holes in the compact. BFI is used by the skilled person to indicate the propensity of a tablet to break or fragment during processing (i.e. failure) such as during ejection from a tablet press or during film coating.
Bonding index is an estimate of the capacity of a compact to retain interparticulate bonds during elastic recovery. […] The estimate of plastic deformation is used in calculating the bonding index. The estimation of bonding index is important since decompression is a major step in the manufacture of tablets. The worst case bonding index (wBI) and best case bonding index (bBI) assess the ability of the interparticulate bonds that have been formed during compression to survive the release of strain energy during compression. Under conditions of high speed manufacture of tablets wBI is more applicable than bBI. Bonding index values of greater than or equal 2 are excellent; values between 0.8-1.9 are good; values between 0.3-0.7 are marginal and values less than 0.3 are poor.
The strain index is a measure of the elastic recovery of the compact. It can also be stated to be a measure of be extent of elastic recovery during the unloading phase.

[4] = Example 10: solubility of sertraline hydrochloride in organic acid solutions; conditions: water (no acid excipient), thermodynamic from solid
[5] = system: healthy male human subjects; assay: Example 2: side effect visual analogue scales and emesis; type: in vivo; conditions: 200 mg bolus dose group (n=14)
Experimental: (§1) In a double-blind, randomized, placebo controlled parallel group study, healthy male human subjects were divided into three groups. […] The tablets were administered with 50 ml water. Group A also received a 50 ml placebo solution every hr for 7 hr. The placebo solution contained lactose and menthol. […] Group B also received two placebo tablets at the fist dosing time. Group C (n=15) received placebo tablets and placebo solutions at the appropriate time points. All subjects were dosed after an overnight fast.
For three side effects evaluated at 30 time points, a total of 4,500 individual visual-analogue-scale evaluations were obtained.

[6] = Example 2: plasma sertraline pharmacokinetics, 200 mg bolus vs 7 hr divided dosing; type: in vivo; conditions: male, human, oral, mean
Experimental: as §1

[7] = system: healthy male human subjects; assay: Example 6 Study II: emesis, regurgitation and PK/PD plots
[8] = system: healthy male human subjects; conditions: Study I
Experimental: In a subset of a larger double-blind, randomized, placebo-controlled parallel group study, healthy male human subjects were divided into two groups (Study I). […] The tablets were administered with 50 ml water. Group B received two placebo tablets. All subjects were dosed after an overnight fast.
The subjects were instructed that “0” indicated an absent effect and “10” indicated the worst possible effect. The subjects were instructed to interpolate between 0 and 10 for moderate side effects.
A total of 30 subjects completed Study I: 15 each in Groups A and B. For each side effect evaluated at 30 time points, a total of 900 individual visual-analogue-scale evaluations were obtained.

[9] = Example 1: plasma sertraline pharmacokinetics, 200 mg bolus vs 15 hr divided dosing; type: in vivo; conditions: male, human, oral
Experimental: (§2) In a double-blind, randomized, placebo-controlled parallel group study, healthy male human subjects were divided into three groups. […] The tablets were administered with 50 ml water. […] Group B also received two placebo tablets at the fist dosing time. Group C, referred to as the “placebo group”, received placebo tablets and placebo solutions at the appropriate corresponding time points. All subjects were dosed after an overnight fast.
Tmax is the time at which Cmax is achieved.

[10] = system: healthy male human subjects; assay: Example 1: side effect visual analogue scales and emesis; type: in vivo; conditions: 15 hr divided dose regimen (15 subjects)
Experimental: as §2
Prior to dosing and to each blood sampling time, each subject filled out a questionnaire, which consisted of a series of “Visual Analogue Scales” in which the subject was required to rate, on a scale of 0-10, the severity of certain potential side effects. The subjects were instructed that “0” indicated an absent effect and “10” indicated the worst possible effect.
Analysis of side effect visual-analogue-scale data was carried out as follows. […] The non-gastrointestinal side effects dizziness and tremor were also evaluated.

Molecule: O=C1O[C@H]([C@@H](O)CO)C(O)=C1O [Ascorbic acid]
- Observation After NaCl Addition ([1]; NaCl 100 mM): precipitate

Molecule: CCCCCCCCCCCCCCCC(=O)OC[C@H](O)[C@H]1OC(=O)C(O)=C1O [Ascorbyl palmitate]
- Sertraline Dissolution Rate ([2]; excipient 6.8, no acid, lactose 74.2, lactate 19 wt %): 4.3 mg/ml-min

Molecule: N[C@@H](Cc1c[nH]cn1)C(=O)O [Histidine]
- Final Sertraline Concentration ([1]; NaCl 150 mM): 110 mg/mL
- Observation After NaCl Addition ([1]; NaCl 150 mM): slight precipitate

Molecule: CCCCCCCCCCCCCCCCCC(=O)OCC(O)CO (stereo not shown) [Imwitor ® 191, Glyceryl Monostearate]
- Sertraline Dissolution Rate ([2]; excipient 5.0, ascorbic 49.5, lactose 12.5, CaCO3 1.0, lactate 14 wt %): 8.0 mg/ml-min

Molecule: CCCCCCCCCCCC(=O)OCC(O)CO (stereo not shown) [Imwitor ® 312, Glyceryl Monolaurate]
- Sertraline Dissolution Rate ([2]; excipient 5.0, ascorbic 49.5, lactose 12.5, CaCO3 5, lactate 14 wt %): 20.9 mg/ml-min
- Sertraline Dissolution Rate ([2]; excipient 6.8, aspartic 74.2, lactate 19 wt %): 5.3 mg/ml-min

Molecule: CCCCCCCC/C=C\CCCCCCCC(=O)OCC(O)CO (stereo not shown) [Myrerol ® (18-99), Glyceryl Monooleate]
- Sertraline Dissolution Rate ([2]; excipient 5.0, ascorbic 49.5, lactose 12.5, lactate 14 wt %): 6.4 mg/ml-min

Molecule: CN[C@H]1CC[C@@H](c2ccc(Cl)c(Cl)c2)c2ccccc21.C[C@H](O)C(=O)O [Sertraline L-lactate]
- tensile strength (in words) [3]: very high
- Compression Stress [3]: 52.8 (0.7) Mpa
- Solid Fraction [3]: 0.862
- Dynamic Indentation Hard. [3]: 81.6 (1.6) Mpa
- Reduced Elastic Modulus [3]: 7.4 (0.6) GPa
- Elastic Modulus ([3]; Quasistatic Indentation): 2.0 (0.2) Gpa
- Quasistatic Indentation Hard. ([3]; Quasistatic Indentation): 31.1 (1.4) Mpa
- Shear Modulus ([3]; Quasistatic Indentation): 113.9 (4.6) Mpa
- Tensile Strength [3]: 0.56 (0.02) Mpa
- Sertraline Dissolution Rate ([2]; no candidate excipient, ascorbic 51.0, lactose 20, lactate 14 wt %): 3.5 mg/ml-min
- Sertraline Dissolution Rate ([2]; sertraline lactate 100 wt %, no excipient): 0.9 mg/ml-min

Molecule: CN[C@H]1CC[C@@H](c2ccc(Cl)c(Cl)c2)c2ccccc21 [Sertraline hydrochloride]
- solubility [4]: 25 mg/mL

Molecule: CN[C@H]1CC[C@@H](c2ccc(Cl)c(Cl)c2)c2ccccc21 [Sertraline]
- emetic events [5]: 4
- Tmax ([6]; 25 mg per hr for 7 hr): 10.4 h
- Cmax ([6]; 25 mg solution per hr for 7 hr (eight doses, 200 mg)): 46 ng/mL
- subjects who exhibited regurgitation ([7]; 200 mg dose group): four
- subjects with emesis ([7]; 200 mg dose group): Four
- time of emesis in individual subjects ([7]; 200 mg dose group): 2.6 h and 2.8 h and 3.8 h
- individual PK/PD plots for regurgitation ([7]; the four subjects with regurgitation): clockwise hysteresis
- PK/PD plot of average nausea score vs plasma sertraline concentration (FIG. 6) ([8]; 200 mg bolus dose): clockwise hysteresis
- diarrhea score vs plasma sertraline concentration curve ([8]; 200 mg bolus dose): clockwise hysteresis
- time of maximum diarrhea score ([8]; post-dose): 3 h
- Cmax [9]: 32 ng/mL
- Tmax [9]: 16 h
- emetic episodes [10]: no emetic episodes

Molecule: Sertraline acetate
- elastic modulus (in words) [3]: relatively low
- Compression Stress [3]: 36.7 (2.5) Mpa
- Solid Fraction [3]: 0.831
- Dynamic Indentation Hard. [3]: 60.0 (0.4) Mpa
- Reduced Elastic Modulus [3]: 5.1 (0.5) GPa
- Quasistatic Indentation Hard. ([3]; Quasistatic Indentation): 25.1 (1.3) Mpa
- Shear Modulus ([3]; Quasistatic Indentation): 99.9 (19.1) Mpa
- Tensile Strength [3]: 0.52 (0.03) Mpa
- ductility (in words) ([3]; from dynamic indentation hardness): high (dynamic indentation hardness values below 100 Mpa are high)

Molecule: Span ® 60
- Sertraline Dissolution Rate ([2]; Span 60 5.0, ascorbic 51.0, lactose 15, lactate 14 wt %): 9.5 mg/ml-min
